pIC50, pKi: −log10 of the molar value.
What was measured:
Sphingosine kinase 2 [1] = molecular target: T1, Sphingosine kinase 2 (Homo sapiens, UniProt Q9NRA0); experiment: Inhibition of recombinant human full-length N-terminal His-tagged SK2 expressed in baculovirus infected Sf9 insect cells using Sph as substrate measured after 30 mins in presence of [gamma32P]ATP by Cerenkov counting analysis
T1 sequence (Q9NRA0 whole entry): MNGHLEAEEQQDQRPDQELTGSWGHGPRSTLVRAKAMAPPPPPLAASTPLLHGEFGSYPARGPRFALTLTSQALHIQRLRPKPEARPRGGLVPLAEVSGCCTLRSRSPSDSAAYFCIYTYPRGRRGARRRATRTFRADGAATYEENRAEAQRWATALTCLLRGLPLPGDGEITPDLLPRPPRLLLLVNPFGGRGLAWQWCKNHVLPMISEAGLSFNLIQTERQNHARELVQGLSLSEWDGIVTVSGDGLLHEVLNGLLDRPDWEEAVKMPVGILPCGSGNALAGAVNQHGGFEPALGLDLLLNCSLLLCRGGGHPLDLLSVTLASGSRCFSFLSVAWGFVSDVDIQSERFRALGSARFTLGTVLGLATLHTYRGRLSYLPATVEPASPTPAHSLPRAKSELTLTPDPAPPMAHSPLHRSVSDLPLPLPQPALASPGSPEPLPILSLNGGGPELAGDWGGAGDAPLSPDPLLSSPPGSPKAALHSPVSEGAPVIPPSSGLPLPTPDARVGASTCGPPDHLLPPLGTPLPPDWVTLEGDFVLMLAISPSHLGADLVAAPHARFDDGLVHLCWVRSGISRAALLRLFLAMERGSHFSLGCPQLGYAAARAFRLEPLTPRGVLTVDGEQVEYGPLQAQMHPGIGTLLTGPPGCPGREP

Sphingosine kinase 1 = Sphingosine kinase 1 (Homo sapiens, UniProt Q9NYA1); experiment: Inhibition of GFP-tagged SK1 (unknown origin) expressed in HEK293 cells using Sph as substrate measured after 30 mins in presence of [gamma32P]ATP by Cerenkov counting analysis; assay type: cell-based
Homo sapiens = species on record: Homo sapiens; experiment: Selectivity index, ratio of IC50 for GFP-tagged SK1 (unknown origin) expressed in HEK293 cells to IC50 for purified SK2 (unknown origin)
Sphingosine kinase 2 [2] = molecular target: T1, Sphingosine kinase 2; experiment: Inhibition of SK2 (unknown origin)
[3] = molecular target: T2, Sphingosine kinase 2 (Homo sapiens) (UniProt Q9NRA0); experiment: Inhibition of recombinant human full-length N-terminal His-tagged SK2 expressed in baculovirus infected Sf9 insect cells at 3 uM using Sph as substrate measured after 30 mins in presence of [gamma32P]ATP by Cerenkov counting analysis relative to control
T2 sequence (whole entry): T1 sequence (Q9NRA0 whole entry)

Chain of Sphingosine kinase 1 (Q9NYA1 whole entry): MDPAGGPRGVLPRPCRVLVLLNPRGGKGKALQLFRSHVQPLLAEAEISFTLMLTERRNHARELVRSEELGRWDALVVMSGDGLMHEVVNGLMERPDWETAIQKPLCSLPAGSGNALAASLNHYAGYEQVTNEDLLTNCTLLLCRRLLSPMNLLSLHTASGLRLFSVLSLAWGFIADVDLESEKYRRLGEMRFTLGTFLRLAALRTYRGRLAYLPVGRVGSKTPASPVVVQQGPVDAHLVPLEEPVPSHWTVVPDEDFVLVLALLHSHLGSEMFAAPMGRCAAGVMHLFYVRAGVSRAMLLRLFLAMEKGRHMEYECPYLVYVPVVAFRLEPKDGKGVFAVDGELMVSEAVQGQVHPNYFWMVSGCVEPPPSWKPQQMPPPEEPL

| pIC50 (Sphingosine kinase 2 [1]) | pIC50 (Sphingosine kinase 1) | pKi (Sphingosine kinase 2 [2]) | inhibition [3] | SMILES | Ratio IC50 (Homo sapiens) |
| --- | --- | --- | --- | --- | --- |
| 6.39 | 7.36 | – | – | OC[C@H]1CCCN1Cc1ccc(COc2cccc(OCc3cccc(Cl)c3)c2)cc1 | 0.11 |
| 7.77 | 6.12 | – | – | OC[C@H]1CCCN1Cc1ccc(COc2cccc(SCc3ccc(F)cc3)c2)cc1 | 45 |
| 7.80 | 7.85 | – | – | OC[C@H]1CCCN1Cc1ccc(COc2cccc(OCc3ccccc3)c2)cc1 | 0.88 |
| 6.04 | 7.96 | – | – | O=S(=O)(Oc1cccc(OCc2ccc(CN3CCC[C@@H]3CO)cc2)c1)c1ccccc1 | 0.012 |
| 7.31 | 6.77 | – | – | OC[C@H]1CCCN1Cc1ccc(COc2cccc(OCc3ccc(F)cc3)c2)cc1 | 3.5 |
| – | 6.84 | – | 16% | O=S(=O)(Cc1cccc(OCc2ccc(CN3CCC[C@@H]3CO)cc2)c1)c1ccccc1 | < 0.048 |
| 7.26 | 7.39 | – | – | OC[C@H]1CCCN1Cc1ccc(COc2cccc(OCc3ccccc3F)c2)cc1 | 0.75 |

More lines, now with the values behind:

| SMILES | pIC50 (Sphingosine kinase 2 [1]) | pIC50 (Sphingosine kinase 1) | pKi (Sphingosine kinase 2 [2]) | inhibition [3] | Ratio IC50 (Homo sapiens) |
| --- | --- | --- | --- | --- | --- |
| OC[C@H]1CCCN1Cc1ccc(COc2cccc(OCc3ccccc3Cl)c2)cc1 | 6.82 | 7.41 | – | – | 0.26 |
| Oc1ccc(Nc2nc(-c3ccc(Cl)cc3)cs2)cc1 | – | – | 5.17 | – | – |
| OC[C@H]1CCCN1Cc1ccc(COc2cccc(OCc3cccc(F)c3)c2)cc1 | 6.84 | 8.05 | – | – | 0.063 |
| N#Cc1ccc(COc2cccc(OCc3ccc(CN4CCC[C@@H]4CO)cc3)c2)cc1 | 5.95 | < 5.52 | – | – | > 2.7 |
| OC[C@H]1CCCN1Cc1ccc(COc2cccc(OCc3ccc(Cl)cc3)c2)cc1 | 7.39 | 5.38 | – | – | 101 |
| OC[C@H]1CCCN1Cc1ccc(COc2cccc(SCc3ccccc3)c2)cc1 | 7.59 | 6.86 | – | – | 5.3 |
| OC[C@H]1CCCN1Cc1ccc(COc2cccc(CCc3ccccc3)c2)cc1 | 7.46 | 7.59 | – | – | 0.74 |
| COc1ccc(COc2cccc(OCc3ccc(CN4CCC[C@@H]4CO)cc3)c2)cc1 | 6.92 | < 5.52 | – | – | > 25 |
| OC[C@H]1CCCN1Cc1ccc(COc2cccc(SCc3ccc(Cl)cc3)c2)cc1 | 7.51 | 5.63 | – | – | 76 |
